In patent EP0456418B1, “Treatment of clostridium difficile diarrhoea and pseudomembranous colitis” (KABUSHIKI KAISHA MIYARISAN SEIBUTSU IGAKU KENKYUSHO, priority 1990, dated 1991):
“Also recorded” adds a separate entry of the source.

Test system: Clostridium difficile
Test: Recurring Clostridium difficile diarrhoea model induced by CFT in golden hamsters
Type: in vivo
[1] = B group: six + 14 doses of VCM, 48 hours after termination of vancomycin

CN[C@H](CC(C)C)C(=O)N[C@H]1C(=O)N[C@@H](CC(N)=O)C(=O)N[C@H]2C(=O)N[C@H]3C(=O)N[C@H](C(=O)N[C@H](C(=O)O)c4cc(O)cc(O)c4-c4cc3ccc4O)[C@H](O)c3ccc(c(Cl)c3)Oc3cc2cc(c3O[C@@H]2O[C@H](CO)[C@@H](O)[C@H](O)[C@H]2O[C@H]2C[C@](C)(N)[C@H](O)[C@H](C)O2)Oc2ccc(cc2Cl)[C@H]1O [vancomycin]
faecal state compared with A group [1]: improvement in the faecal state | ratio of Clostridium difficile detection [1]: one out of five | faecal state (six doses of vancomycin): discernible improvement in the faecal state | culture of Clostridium difficile from faeces (six doses of vancomycin (3 days administration), detection limit 400CFu/g faeces): not so effective as to show negative culture; also recorded: positive culture | culture of Clostridium difficile (vancomycin continued for a total of 10 days): negative culture
